Test results: US7563893B2, “3-Phenyl-cinnoline analogue and antitumor agent using the same” (Nippon Kayaku Kabushiki Kaisha, priority 2002, dated 2009)
In brackets after ≈: the same amount, converted by molar mass.

Key:
[1] = test system: Mammary tumor cell MDA-MB-453; test: Antitumor effect in vitro, proliferation inhibition (methylene blue staining, absorption at 660 nm); format: cell-based; conditions: MDA-MB-453, 4000 cells, incubated 3 days with compound; for IC50: Homo sapiens, 72 h, read-out: IC50 (50% cell proliferation inhibitory concentration), MDA-MB-453
Procedure: (§1) Antitumor Effect in vitro Using Mammary Tumor Cell MCF-7 and MDA-MB-453
(§2) Each MCF-7, 2000 cells, and MDA-MB-453, 4000 cells, was inoculated using 10% serum added RPMI 1640 medium (Asahi Technoclass Inc.) into a 96 well plate. After incubating these cells at 37° C., under atmosphere of 5% CO2/95% air for 24 hours, each of the compounds of Examples 1, 2, 6, 9-13, 20, 24, 26, 27, 65, 66, 70, 71, 72 and 73 was added and incubated for further 3 days. Cells were stained with a 0.05% methylene blue solution and measured using a microplate reader (Benchmark Plus, Bio-Rad Laboratories) by absorption at 660 nm. Proliferation inhibition rate was calculated by the following equation, and 50% cell proliferation inhibitory concentrations of the compounds of Examples 1, 2, 6, 9-13, 20, 24, 26, 27, 65, 66, 70, 71, 72 and 73 were shown in Table 2. Proliferation inhibition rate=(1−absorbance with drug addition÷absorbance in control)×100

Mammary tumor cell MCF-7 = test: as above; format: cell-based; conditions: MCF-7, 2000 cells, incubated 3 days with compound; for IC50: Homo sapiens, MCF7, 72 h, read-out: IC50 (50% cell proliferation inhibitory concentration), MCF-7
Procedure: as §1, §2

[2] = test system: Mammary tumor cells ZR-75-1; test: Antitumor effect in vivo, subcutaneous tumor in nude mice; conditions: day 15 after initiating administration; oral 500 mg/kg once a day for 14 days; ZR-75-1 in female nude mice
Procedure: Antitumor Effect in vivo Using Mammary Tumor Cell ZR-75-1
Mammary tumor cells ZR-75-1 were inoculated in dorsal subcutaneous region of female nude mice. The compound of example 66 and example 53 was administered orally at dose level of 500 mg/kg, once a day, for 14 days consecutively from the point of initiating logarithmic growth of tumor cells. Conjugate axis and transverse axis of tumor were measured in the time dependent manner, and tumor volume was calculated by the following equation. Relative tumor volume, wherein tumor volume at the time of initiating administration was set as 1, was calculated. Effectiveness was judged by value (T/C) wherein tumor volume in the treated group is divided by tumor volume in the control group. tumor volume=conjugate axis×conjugate axis×transverse axis/2

[3] = test system: mammary tumor cells, T-47D; test: Antitumor effect in vitro, proliferation inhibition, same condition as Test Example 1; format: cell-based; conditions: Homo sapiens, T47D, 4000 cells
Procedure: as §2
Further, a test was conducted by using 4000 mammary tumor cells, T-47D, by adding a compound of example 65 or 66 under the same condition hereinabove.

| IC50 [1] | IC50 (Mammary tumor cell MCF-7) | Compound | also measured |
| --- | --- | --- | --- |
| 9.35 µg/mL (≈ 33 µM) | 1.41 µg/mL (≈ 4.96 µM) | CC1CC(=O)c2cc(-c3cccc([N+](=O)[O-])c3)nnc2C1 (stereo not drawn) [Example 20, 7-methyl-3-(3-nitrophenyl)-7,8-dihydro-6H-cinnolin-5-one] | – |
| 4.95 µg/mL (≈ 19.3 µM) | 3.57 µg/mL (≈ 13.9 µM) | CC1CC(=O)c2cc(-c3cccc(F)c3)nnc2C1 (stereo not drawn) [Example 24, 3-(3-fluorophenyl)-7-methyl-7,8-dihydro-6H-cinnolin-5-one] | – |
| 1.64 µg/mL (≈ 5.32 µM) | 0.1 µg/mL (≈ 0.324 µM) | CC1CC(=O)C2=C(C1)NN=C(c1cccc(C(F)(F)F)c1)C2 (stereo not drawn) [Example 65, 7-methyl-3-(3-trifluoromethylphenyl)-4,6,7,8-tetrahydro-1H-cinnolin-5-one] | IC50 [3]: 0.67 µg/mL (≈ 2.17 µM) |
| 1.26 µg/mL (≈ 4.11 µM) | 0.05 µg/mL (≈ 0.163 µM) | CC1CC(=O)c2cc(-c3cccc(C(F)(F)F)c3)nnc2C1 (stereo not drawn) [Example 66, 7-methyl-3-(3-trifluoromethylphenyl)-7,8-dihydro-6H-cinnolin-5-one] | T/C value (tumor volume in treated group divided by control group) [2]: 30.3%; IC50 [3]: 0.28 µg/mL (≈ 0.914 µM) |
| 0.551 µg/mL (≈ 1.81 µM) | 0.181 µg/mL (≈ 0.595 µM) | Cc1cc(O)c2cc(-c3cccc(C(F)(F)F)c3)nnc2c1 [Example 70, 7-methyl-3-(3-trifluoromethylphenyl)cinnolin-5-ol] | – |

Further lines, the compound ahead of its results:

| Compound | IC50 [1] | IC50 (Mammary tumor cell MCF-7) | also measured |
| --- | --- | --- | --- |
| CC(C)[C@H](N)C(=O)O[C@@H]1C[C@H](C)Cc2nnc(-c3cccc(C(F)(F)F)c3)cc21.Cl.Cl | – | – | melting point: 162 to 165 °C |
| CC(C)[C@H](N)C(=O)O[C@H]1C[C@H](C)Cc2nnc(-c3cccc(C(F)(F)F)c3)cc21.Cl.Cl | – | – | melting point: 186 to 189 °C |
| CC(C)[C@H](N)C(=O)O[C@@H]1C[C@@H](C)Cc2nnc(-c3cccc(C(F)(F)F)c3)cc21.Cl.Cl | – | – | melting point: 181 to 185 °C |
| 7-benzyl-3-(3-trifluoromethylphenyl)-7,8-dihydro-6H-pyrido[3,4-c]-pyridazin-3-one [Example 26] | – | – | IC50 (50% cell proliferation inhibitory concentration), MDA-MB-453 [1]: 8.9300 µg/mL; IC50 (50% cell proliferation inhibitory concentration), MCF-7 (Mammary tumor cell MCF-7): 0.3610 µg/mL |
| CC1Cc2nnc(-c3cccc(C(F)(F)F)c3)cc2C(O)C1 (racemic) [Example 6, 7-methyl-3-(3-trifluoromethylphenyl)-5,6,7,8-tetrahydrocinnolin-5-ol] | 1.47 µg/mL (≈ 4.77 µM) | 0.0499 µg/mL (≈ 0.162 µM) | – |
| O=C1CC(c2ccccc2)Cc2nnc(-c3cccc(C(F)(F)F)c3)cc21 (stereo not drawn) [Example 1, 7-phenyl-3-(3-trifluoro-methylphenyl)-7,8-dihydro-6H-cinnolin-5-one] | – | – | IC50 (50% cell proliferation inhibitory concentration), MDA-MB-453 [1]: 0.0395 µg/mL (≈ 0.107 µM); IC50 (50% cell proliferation inhibitory concentration), MCF-7 (Mammary tumor cell MCF-7): 0.0388 µg/mL (≈ 0.105 µM) |
| CCOC(=O)C1CC(=O)c2cc(-c3cccc(C(F)(F)F)c3)nnc2C1 (stereo not drawn) [Example 2, ethyl 5-oxo-3-(3-trifluoro-methylphenyl)-7,8-dihydro-6H-cinnoline-7-carboxylate] | – | – | IC50 (50% cell proliferation inhibitory concentration), MDA-MB-453 [1]: 1.5700 µg/mL (≈ 4.31 µM); IC50 (50% cell proliferation inhibitory concentration), MCF-7 (Mammary tumor cell MCF-7): 1.9600 µg/mL (≈ 5.38 µM) |
| CC1Cc2nnc(-c3cccc(C(F)(F)F)c3)cc2C(O)C1 (stereo not drawn) [Example 9, syn-(−)-7-methyl-3-(3-trifluoromethylphenyl)-5,6,7,8-tetrahydrocinnolin-5-ol] | – | – | IC50 (50% cell proliferation inhibitory concentration), MDA-MB-453 [1]: 0.3390 µg/mL (≈ 1.1 µM); IC50 (50% cell proliferation inhibitory concentration), MCF-7 (Mammary tumor cell MCF-7): 0.0772 µg/mL (≈ 0.25 µM) |
| CC1Cc2nnc(-c3cccc(C(F)(F)F)c3)cc2C(O)C1 (stereo not drawn) [Example 10, syn-(+)-7-methyl-3-(3-trifluoromethylphenyl)-5,6,7,8-tetrahydrocinnolin-5-ol] | – | – | IC50 (50% cell proliferation inhibitory concentration), MDA-MB-453 [1]: 1.5400 µg/mL (≈ 5 µM); IC50 (50% cell proliferation inhibitory concentration), MCF-7 (Mammary tumor cell MCF-7): 0.0982 µg/mL (≈ 0.319 µM) |
| CC(=O)OC1CC(C)Cc2nnc(-c3cccc(C(F)(F)F)c3)cc21 (stereo not drawn) [Example 11, 5-acetyloxy-7-methyl-3-(3-trifluoromethylphenyl)-5,6,7,8-tetrahydrocinnoline] | 0.848 µg/mL (≈ 2.42 µM) | 0.0455 µg/mL (≈ 0.13 µM) | – |
| O=C1CCCc2c1cc(-c1cccc(C(F)(F)F)c1)n[n+]2[O-] [Example 13, 5-oxo-1-oxy-3-(3-trifluoromethylphenyl)-7,8-dihydro-6H-cinnoline] | – | – | IC50 (50% cell proliferation inhibitory concentration), MDA-MB-453 [1]: 0.9510 µg/mL (≈ 3.09 µM); IC50 (50% cell proliferation inhibitory concentration), MCF-7 (Mammary tumor cell MCF-7): 0.0671 µg/mL (≈ 0.218 µM) |
| CC(C)(O)C1Cc2nnc(-c3cccc(C(F)(F)F)c3)cc2C(O)C1 (stereo not drawn) [Example 27, 7-(2-hydroxy-2-propyl)-3-(3-trifluoromethylphenyl)-5,6,7,8-tetrahydrocinnolin-5-ol] | 4.72 µg/mL (≈ 13.4 µM) | 0.271 µg/mL (≈ 0.769 µM) | – |
| CC1Cc2nnc(-c3cccc(C(F)(F)F)c3)cc2C(OC(=O)[C@@H](N)C(C)C)C1.Cl.Cl (stereo partly drawn) [Example 53, 5-(L-valyloxy)-7-methyl-3-(3-trifluoromethylphenyl)-5,6,7,8-tetrahydrocinnoline dihydrochloride] | – | – | melting point: 201 to 203 °C; T/C value (tumor volume in treated group divided by control group) [2]: 34.0% |
| COc1cc(C)cc2nnc(-c3cccc(C(F)(F)F)c3)cc12 [Example 71, 5-methoxy-7-methyl-3-(3-trifluoromethylphenyl)cinnoline] | 3.36 µg/mL (≈ 10.6 µM) | 0.158 µg/mL (≈ 0.496 µM) | – |
| CC(=O)Oc1cc(C)cc2nnc(-c3cccc(C(F)(F)F)c3)cc12 [Example 72, 5-acetyloxy-7-methyl-3-(3-trifluoromethylphenyl)cinnoline] | 0.42 µg/mL (≈ 1.21 µM) | 0.138 µg/mL (≈ 0.398 µM) | – |
| Cc1cc(OCc2ccccc2)c2cc(-c3cccc(C(F)(F)F)c3)nnc2c1 [Example 73, 5-benzyloxy-7-methyl-3-(3-trifluoromethylphenyl)cinnoline] | 2.6 µg/mL (≈ 6.59 µM) | 0.399 µg/mL (≈ 1.01 µM) | – |
